Assay [1] concerns the target T1, Beta-secretase 1 (Homo sapiens, UniProt P56817). Briefly: Inhibition of BACE1 expressed in baculovirus assessed as inhibition of amyloid beta-42 production at 10 uM after 60 mins by spectrofluorometric assay.
For assay [2], the target named is T2, Acetylcholinesterase (Homo sapiens, UniProt P22303). As to the kind of experiment: Mixed-type inhibition of human AChE assessed as hydrolysis of acetylthiocholine by Lineweaver-Burk plot analysis.
In assay [3] the target is T2, Acetylcholinesterase.
Description: Inhibition of human serum recombinant AChE using acetylthiocholine iodide as substrate preincubated for 20 mins by Ellman's method
For assay [4], the target named is T1, Beta-secretase 1.
Description: Inhibition of BACE1 expressed in baculovirus assessed as inhibition of amyloid beta-42 production after 60 mins by spectrofluorometric assay
The target in another assay is Cholinesterase (Homo sapiens, UniProt P06276).
Chain of Cholinesterase (P06276 whole entry): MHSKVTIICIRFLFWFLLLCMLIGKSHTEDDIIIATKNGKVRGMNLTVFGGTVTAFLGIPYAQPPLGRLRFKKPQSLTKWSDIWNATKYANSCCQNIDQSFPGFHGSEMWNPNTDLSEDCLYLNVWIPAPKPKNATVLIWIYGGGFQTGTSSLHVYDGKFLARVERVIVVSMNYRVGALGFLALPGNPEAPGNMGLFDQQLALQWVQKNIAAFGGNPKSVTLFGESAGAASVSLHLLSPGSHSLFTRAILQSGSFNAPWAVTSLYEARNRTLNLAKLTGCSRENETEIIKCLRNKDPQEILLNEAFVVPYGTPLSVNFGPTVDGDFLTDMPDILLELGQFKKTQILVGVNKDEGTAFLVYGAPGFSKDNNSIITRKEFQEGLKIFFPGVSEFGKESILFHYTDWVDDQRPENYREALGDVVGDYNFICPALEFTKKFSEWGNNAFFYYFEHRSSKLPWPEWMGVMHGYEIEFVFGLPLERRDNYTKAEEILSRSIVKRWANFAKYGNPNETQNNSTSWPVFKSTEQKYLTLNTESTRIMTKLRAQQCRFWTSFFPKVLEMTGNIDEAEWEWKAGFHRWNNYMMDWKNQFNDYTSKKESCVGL

T2 sequence (P22303 whole entry): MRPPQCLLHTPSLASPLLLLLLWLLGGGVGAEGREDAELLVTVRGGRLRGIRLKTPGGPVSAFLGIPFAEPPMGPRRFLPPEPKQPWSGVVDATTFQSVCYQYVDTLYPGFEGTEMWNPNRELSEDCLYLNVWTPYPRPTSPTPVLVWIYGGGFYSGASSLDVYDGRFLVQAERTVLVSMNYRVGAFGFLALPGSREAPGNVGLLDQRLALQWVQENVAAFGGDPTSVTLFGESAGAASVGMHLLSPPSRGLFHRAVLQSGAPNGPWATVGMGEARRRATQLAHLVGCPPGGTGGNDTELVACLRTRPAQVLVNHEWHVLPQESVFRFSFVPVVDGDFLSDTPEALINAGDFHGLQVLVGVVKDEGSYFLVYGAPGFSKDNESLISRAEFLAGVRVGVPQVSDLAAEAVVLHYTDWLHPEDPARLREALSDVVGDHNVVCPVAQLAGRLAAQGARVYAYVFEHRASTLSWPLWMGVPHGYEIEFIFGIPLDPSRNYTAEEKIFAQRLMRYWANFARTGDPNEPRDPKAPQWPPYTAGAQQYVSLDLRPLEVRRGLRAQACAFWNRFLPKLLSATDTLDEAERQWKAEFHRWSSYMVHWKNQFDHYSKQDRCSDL
T1 sequence (P56817 whole entry): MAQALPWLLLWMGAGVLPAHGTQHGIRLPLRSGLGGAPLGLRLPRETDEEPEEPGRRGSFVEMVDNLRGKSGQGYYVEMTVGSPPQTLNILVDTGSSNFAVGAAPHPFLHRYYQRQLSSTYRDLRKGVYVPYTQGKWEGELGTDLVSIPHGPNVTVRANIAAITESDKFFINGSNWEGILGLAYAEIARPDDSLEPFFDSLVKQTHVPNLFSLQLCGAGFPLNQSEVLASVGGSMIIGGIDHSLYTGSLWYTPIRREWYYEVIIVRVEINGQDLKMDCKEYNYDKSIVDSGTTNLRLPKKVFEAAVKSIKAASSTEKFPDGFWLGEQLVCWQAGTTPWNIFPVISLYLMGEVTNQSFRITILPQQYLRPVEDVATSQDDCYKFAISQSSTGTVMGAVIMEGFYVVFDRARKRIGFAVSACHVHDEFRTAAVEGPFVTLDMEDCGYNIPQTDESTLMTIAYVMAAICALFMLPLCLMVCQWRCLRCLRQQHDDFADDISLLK

Turning to `Clc1ccc2c(NCCCCCCCNc3c4c(nc5ccccc35)-c3ccccc3C4)c3c(nc2c1)CCCC3`, the inhibition at Beta-secretase 1 [1] worked out at 27%. The Ki on Acetylcholinesterase [2] was 1.01 nM. Besides, the figures for the IC50 at Acetylcholinesterase [3], at Beta-secretase 1 [4] and at Cholinesterase were 1.05 nM, 1000 nM and 63.7 nM, respectively.

With `c1ccc2c(NCCCCCCN3CCOCC3)c3c(nc2c1)CCCC3`, the IC50 was 68.9 nM against Acetylcholinesterase [3] and 101 nM on Cholinesterase.

On to `c1ccc2c(NCCCCCCCCN3CCOCC3)c3c(nc2c1)CCCC3`, for which the values for the IC50 against Acetylcholinesterase [3] and at Cholinesterase were 16.5 nM and 42.8 nM, respectively.

Turning to `Clc1ccc2c(NCCCCCCCNc3c4c(nc5cc(Cl)ccc35)-c3ccccc3C4)c3c(nc2c1)CCCC3`, the results for the IC50 against Acetylcholinesterase [3] and against Cholinesterase were 12.1 nM and 1660 nM, respectively.

In the case of `Clc1ccc2c(NCCCCCCCOc3cccc(-c4cc5ccccc5o4)c3)c3c(nc2c1)CCCC3`, the IC50 against Acetylcholinesterase [3] stood at 258 nM; at Cholinesterase, 41.4 nM.

Turning to `c1ccc2c(c1)Cc1c-2nc2ccccc2c1NCCCCCCCNc1c2c(nc3ccccc13)CCCC2`, the inhibition on Beta-secretase 1 [1] came out at 27%. Also, the figures for the IC50 on Acetylcholinesterase [3] and on Cholinesterase were 13.9 nM and 24.8 nM, respectively.

For the compound `c1ccc2c(NCCCCCCCCCN3CCOCC3)c3c(nc2c1)CCCC3`, the IC50 at Acetylcholinesterase [3] amounted to 34 nM; against Cholinesterase, 38.1 nM.

Regarding `O=c1c2ccc(OCCCCCCCNc3c4c(nc5ccccc35)CCCC4)cc2oc2ncccc12`, the IC50 was 283 nM against Acetylcholinesterase [3] and 101 nM at Cholinesterase.

`c1ccc2c(NCCCCCCCCCCN3CCOCC3)c3c(nc2c1)CCCC3`: the figures for the IC50 at Acetylcholinesterase [3] and against Cholinesterase were 28.4 nM and 14.7 nM, respectively.

As to `Clc1ccc2c(NCCCCCCCOc3ccc(-c4cc5ccccc5o4)cc3)c3c(nc2c1)CCCC3`, the concentration for half-maximal inhibition (IC50) against Acetylcholinesterase [3] is 310 nM; against Cholinesterase, 7280 nM.

For the compound `c1ccc2c(c1)Cc1c-2nc2ccccc2c1NCCCCCCCNc1c2c(nc3ccccc13)-c1ccccc1C2`, on Beta-secretase 1 [1], the inhibition was determined as 27%. In addition, the IC50 is 455 nM against Acetylcholinesterase [3], 400 nM against Beta-secretase 1 [4] and 28.6 nM against Cholinesterase.

For `c1ccc2c(NCCCCCCCN3CCOCC3)c3c(nc2c1)CCCC3`, the IC50 on Acetylcholinesterase [3] stood at 44.5 nM; at Cholinesterase it was 90.5 nM.

As usually defined, the inhibition is the percentage by which the read-out fell short of the control. As usually defined, the Ki is a measure of affinity in units of concentration, obtained from inhibition or displacement. As usually defined, the IC50 is the concentration at which inhibition is half-maximal. Read a low IC50 as higher potency.

Source of the values: ChEMBL document CHEMBL1817594, “Multi-target strategy to address Alzheimer's disease: design, synthesis and biological evaluation of new tacrine-based dimers” (Eur J Med Chem, 2011).
